From patent EP4458352A1, “EICOSAPENTAENOIC ACID ESTER DERIVATIVES FOR THE TREATMENT OF OBESITY” (Technische Universität Dresden, priority 2023, dated 2024)

Experiments:
[1] = system: primary adrenal cell cultures; experiment: Steroid hormone production (LC-MS/MS) in primary adrenal cell cultures treated with SC-26196, with or without ACTH or ARA; format: cell-based, WT C57BL/6J mice
Protocol: Adrenal glands or adrenal corteces were isolated from WT C57BL/6J mice, cleaned from the surrounding fat tissue and incubated in collagenase buffer (1.6 mg/ml collagenase type I, 1.6 mg/ml BSA) for 45 min at 37 °C, while shaking at 900 rpm. Dissociated cells were passed through 22 G needle and a 100 µm cell strainer and centrifuged at 300 × g for 5 min at 4 °C. Cells of a pool from two adrenals of each mouse were distributed in four 0.2 % gelatin-precoated wells of a 96-well plate in DMEM/F12 supplemented with 1 % FBS, 50 U/mL penicillin and 50 µg/mL streptomycin. Two hours after seeding 10 µM SC-26196 (Tocris, Wiesbaden-Nordenstadt, Germany) or same amount of carrier (DMSO) were added without changing the medium. In some experiments medium was additionally supplemented with 150 µM ARA (Sigma Aldrich, Germany) or same amount of solvent (endotoxin-free water). When induction of steroidogenesis was required, the medium was changed 18 h after treatment and the cells were incubated with or without 10 ng/mL ACTH for 60 min in the presence of either 10 µM SC-26196 or DMSO. Supernatants were kept for steroid hormone measurement and cell lysates were collected for transcriptional analysis. In some experiments, primary CD31-CD45- adrenocortical cells were treated or not for 18 h with 66 µM EPA (Sigma-Aldrich). Steroid hormones in plasma and cell culture supernatants were analyzed by LC-MS/MS as previously described (71). Fifty to hundred µL plasma or cell culture supernatants were extracted by solid phase extraction using positive pressure, followed by a dry-down under gentle stream of nitrogen. Residues were reconstituted in 100 µL of the initial LC mobile phase and 10 µL were injected for detection by the triple quadrupole mass spectrometer in multiple reaction-monitoring scan mode using positive electrospray ionization. Quantification of steroid concentrations was done by comparisons of ratios of analyte peak areas to respective peak areas of stable isotope labeled internal standards obtained in samples to those of calibrators.

adrenal cortex = experiment: RNA-Seq and GSEA of the adrenal cortex of HFD mice with or without icosapent ethyl; format: in vivo, WT C57BL/6J mice; settings: HFD with icosapent ethyl versus HFD without; n=4 mice per group
Protocol: Six weeks-old male WT C57BL/6J mice were fed for 20 weeks a LFD (D12450B, Research Diets, NJ, USA) or a HFD (D12492, Research Diets, NJ, USA). In some experiments, WT C57BL/6J mice were fed for 8 weeks a HFD and for another 8 weeks a HFD supplemented with SC-26196 (Biorbyt Ltd). SC-26196 was mixed in the HFD at a concentration of 625 mg/kg of diet corresponding to approx. 100 mg/kg of animal weight. In other experiments WT mice were fed for 10 weeks a HFD and for another 10 weeks a HFD supplemented with icosapent ethyl (Vascepa). […]
For transcriptome mapping, strand-specific paired-end sequencing libraries from total RNA were constructed using TruSeq stranded Total RNA kit (Illumina Inc). […] Low quality nucleotides were removed with the Illumina fastq filter and reads were further subjected to adaptor trimming using cutadapt (85). Alignment of the reads to the Mouse genome was done using STAR Aligner (86) using the parameters: "-runMode alignReads -outSAMstrandField intronMotif-outSAMtype BAM SortedByCoordinate-readFilesCommand zcat". […] The parameters: `htseq-count -f bam -s reverse -m union -a 20', HTSeq-0.6.1p1 (87) were used to count the reads that map to the genes in the aligned sample files. The GTF file (gencode.vM12.annotation.gtf) used for read quantification was downloaded from Gencode (https://www.gencodegenes.org/mouse/release_M12.html). […]

[2] = ARA 150 µM with SC-26196 10 µM, 18 h, n=6-8

SMILES	11-deoxycorticosterone production in cells treated with SC-26196 [1, 2]	corticosterone production in cells treated with SC-26196 [1, 2]	progesterone production in cells treated with SC-26196 [1, 2]	steroidogenesis in adrenocortical cells ([1]; ARA supplementation (150 µM))	genes being down-regulated in the adrenal cortex (RNA-Seq) (adrenal cortex)	genes being up-regulated in the adrenal cortex (RNA-Seq) (adrenal cortex)
CCCCC/C=C\C/C=C\C/C=C\C/C=C\CCCC(=O)O [ARA, all-cis-5,8,11,14-eicosatetraenoic acid]	partially restored	partially restored	partially restored	increased steroidogenesis		
CC/C=C\C/C=C\C/C=C\C/C=C\C/C=C\CCCC(=O)OCC [icosapent ethyl, eicosapentaenoic acid ethyl ester]					162	266
